Converted amounts (≈) assume the structure as drawn.
How the values were obtained:
[1] = Pharmacokinetics (plasma half-life); format: in vivo; settings: SD Rat, mean value, read-out: Half-Life (T1/2)
Procedure: In order to investigate the pharmacokinetics properties of the compounds according to the present invention, the plasma half-life was determined in accordance with the method described in Antimicrobial Agents and Chemotherapy, 26(2), p.

S.marcescens C1052 = assay: In vitro antibacterial activity, minimum inhibitory concentration; format: cell-based; settings: Serratia marcescens; S.marcescens C1052; read-out: Minimum Inhibitory Concentration (MIC)
Excerpt: (§1) As reference compounds, Cefotaxime (CTX), Ceftazidime (CAZ) and Cefpirome (CPR) were employed.

K.oxytoca C4022 = assay: as above; format: cell-based; settings: Klebsiella oxytoca; K.oxytoca C4022; read-out: Minimum Inhibitory Concentration (MIC)
Excerpt: as §1

S.aureus ATCC29213 = assay: as above; format: cell-based; settings: Staphylococcus aureus; S.aureus ATCC29213; read-out: Minimum Inhibitory Concentration (MIC)
Excerpt: as §1

S.aureus C4036 = assay: as above; format: cell-based; settings: Staphylococcus aureus; S.aureus C4036; read-out: Minimum Inhibitory Concentration (MIC)
Excerpt: as §1

S.marcescens ATCC27117 = assay: as above; format: cell-based; settings: Serratia marcescens; S.marcescens ATCC27117; read-out: Minimum Inhibitory Concentration (MIC)
Excerpt: as §1

S.pyogenes C4003 = assay: as above; format: cell-based; settings: Streptococcus pyogenes; S.pyogenes C4003; read-out: Minimum Inhibitory Concentration (MIC)
Excerpt: as §1

P.aeruginosa ATCC27853 = assay: as above; format: cell-based; settings: Pseudomonas aeruginosa; P.aeruginosa ATCC27853; read-out: Minimum Inhibitory Concentration (MIC)
Excerpt: as §1

S.pyogenes ATCC 8668 = assay: as above; format: cell-based; settings: Streptococcus pyogenes, ATCC8668; S.pyogenes ATCC 8668; read-out: Minimum Inhibitory Concentration (MIC)
Excerpt: as §1

K.pneumoniae C1040 = assay: as above; format: cell-based; settings: Klebsiella pneumoniae; K.pneumoniae C1040; read-out: Minimum Inhibitory Concentration (MIC)
Excerpt: as §1

E.coli C4002 = assay: as above; format: cell-based; settings: Escherichia coli; E.coli C4002; read-out: Minimum Inhibitory Concentration (MIC)
Excerpt: as §1

E.cloacae C4008 = assay: as above; format: cell-based; settings: Enterobacter cloacae; E.cloacae C4008; read-out: Minimum Inhibitory Concentration (MIC)
Excerpt: as §1

P.aeruginosa C2027 = assay: as above; format: cell-based; settings: Pseudomonas aeruginosa; P.aeruginosa C2027; read-out: Minimum Inhibitory Concentration (MIC)
Excerpt: as §1

P.mirabilis ATCC25933 = assay: as above; format: cell-based; settings: Proteus mirabilis; P.mirabilis ATCC25933; read-out: Minimum Inhibitory Concentration (MIC)
Excerpt: as §1

P.rettgeri ATCC9919 = assay: as above; format: cell-based; settings: Providencia rettgeri; P.rettgeri ATCC9919; read-out: Minimum Inhibitory Concentration (MIC)
Excerpt: as §1

K.pneumoniae ATCC10031 = assay: as above; format: cell-based; settings: Klebsiella pneumoniae; K.pneumoniae ATCC10031; read-out: Minimum Inhibitory Concentration (MIC)
Excerpt: as §1

S.epidermidis ATCC12228 = assay: as above; format: cell-based; settings: Staphylococcus epidermidis; S.epidermidis ATCC12228; read-out: Minimum Inhibitory Concentration (MIC)
Excerpt: as §1

S.typhimurium C4045 = assay: as above; format: cell-based; settings: Salmonella enterica; S.typhimurium C4045; read-out: Minimum Inhibitory Concentration (MIC)
Excerpt: as §1

P.aeruginosa C4070 = assay: as above; format: cell-based; settings: Pseudomonas aeruginosa; P.aeruginosa C4070; read-out: Minimum Inhibitory Concentration (MIC)
Excerpt: as §1

MRSA C2208 = assay: as above; format: cell-based; settings: Staphylococcus aureus; MRSA C2208; read-out: Minimum Inhibitory Concentration (MIC)
Excerpt: as §1

E.coli ATCC25922 = assay: as above; format: cell-based; settings: Escherichia coli; E.coli ATCC25922; read-out: Minimum Inhibitory Concentration (MIC)
Excerpt: as §1

E.coli ATCC10536 = assay: as above; format: cell-based; settings: Escherichia coli; E.coli ATCC10536; read-out: Minimum Inhibitory Concentration (MIC)
Excerpt: as §1

S.Faecalis ATCC29212 = assay: as above; format: cell-based; settings: Enterococcus faecalis
Excerpt: as §1

P.aeruginosa ATCC10145 = assay: as above; format: cell-based; settings: Pseudomonas aeruginosa; P.aeruginosa ATCC10145; read-out: Minimum Inhibitory Concentration (MIC)
Excerpt: as §1

E.cloacae C4009 = assay: as above; format: cell-based; settings: Enterobacter cloacae; E.cloacae C4009; read-out: Minimum Inhibitory Concentration (MIC)
Excerpt: as §1

S.aureus Smith = assay: as above; format: cell-based; settings: Staphylococcus aureus; S.aureus Smith; read-out: Minimum Inhibitory Concentration (MIC)
Excerpt: as §1

Compound | MIC (S.marcescens C1052) [µg/mL] | MIC (K.oxytoca C4022) [µg/mL] | MIC (S.aureus ATCC29213) [µg/mL] | MIC (S.aureus C4036) [µg/mL] | MIC (S.marcescens ATCC27117) [µg/mL] | MIC (S.pyogenes C4003) [µg/mL] | MIC (P.aeruginosa ATCC27853) [µg/mL] | MIC (S.pyogenes ATCC 8668) [µg/mL] | MIC (K.pneumoniae C1040) [µg/mL] | MIC (E.coli C4002) [µg/mL] | MIC (E.cloacae C4008) [µg/mL] | MIC (P.aeruginosa C2027) [µg/mL] | MIC (P.mirabilis ATCC25933) [µg/mL] | MIC (P.rettgeri ATCC9919) [µg/mL] | MIC (K.pneumoniae ATCC10031) [µg/mL] | MIC (S.epidermidis ATCC12228) [µg/mL] | MIC (S.typhimurium C4045) [µg/mL] | MIC (P.aeruginosa C4070) [µg/mL] | MIC (MRSA C2208) [µg/mL] | MIC (E.coli ATCC25922) [µg/mL] | also measured
CO/N=C(\C(=O)N[C@@H]1C(=O)N2C(C(=O)[O-])=C(C[n+]3ccc4[nH]c(=O)[nH]c4c3)CS[C@H]12)c1nsc(N)n1 [Ex. 5, 7-β-[(Z)-2-(5-Amino-1,2,4-thiadiazol-3-yl)-2-methoxyiminoacetamido]-3-[2-(1H,3H)-oxo-imidazo[4,5-c]pyridiniummethyl]-3-cephem-4-carboxylate] | 0.025 (≈ 0.047 µM) | 0.78 (≈ 1.47 µM) | 1.56 (≈ 2.93 µM) | 1.56 (≈ 2.93 µM) | 0.007 (≈ 0.0132 µM) | 0.013 (≈ 0.0245 µM) | 0.78 (≈ 1.47 µM) | 0.013 (≈ 0.0245 µM) | 0.004 (≈ 0.00753 µM) | 0.007 (≈ 0.0132 µM) | 0.002 (≈ 0.00376 µM) | 0.78 (≈ 1.47 µM) | 0.025 (≈ 0.047 µM) | 0.007 (≈ 0.0132 µM) | 0.004 (≈ 0.00753 µM) | 0.78 (≈ 1.47 µM) | 0.007 (≈ 0.0132 µM) | 1.56 (≈ 2.93 µM) | > 100 | 0.013 (≈ 0.0245 µM) | half-life [1]: 24 min; MIC (E.coli ATCC10536): 0.004 µg/mL (≈ 0.00753 µM); MIC (S.Faecalis ATCC29212): > 100 µg/mL; MIC (P.aeruginosa ATCC10145): 1.56 µg/mL (≈ 2.93 µM); MIC (E.cloacae C4009): 0.007 µg/mL (≈ 0.0132 µM); MIC (S.aureus Smith): 1.56 µg/mL (≈ 2.93 µM)
Nc1nc(/C(=N/OCC(=O)O)C(=O)N[C@@H]2C(=O)N3C(C(=O)[O-])=C(C[n+]4ccc5[nH]c(=O)[nH]c5c4)CS[C@H]23)ns1 [Ex. 8, 7-β-[(Z)-2-(5-Amino-1,2,4-thiadiazol-3-yl)-2-carboxymethoxyiminoacetamido]-3-[2-(1H,3H)-oxo-imidazo[4,5-c]pyridiniummethyl]-3-cephem-4-carboxylate] | 0.2 (≈ 0.347 µM) | 0.782 (≈ 1.36 µM) | 0.78 (≈ 1.36 µM) | 1.56 (≈ 2.71 µM) | 0.1 (≈ 0.174 µM) | 0.196 (≈ 0.341 µM) | 3.13 (≈ 5.44 µM) | 0.1 (≈ 0.174 µM) | 0.05 (≈ 0.0869 µM) | 3.13 (≈ 5.44 µM) | 0.013 (≈ 0.0226 µM) | 3.13 (≈ 5.44 µM) | 0.05 (≈ 0.0869 µM) | 0.025 (≈ 0.0434 µM) | 0.013 (≈ 0.0226 µM) | 1.56 (≈ 2.71 µM) | 0.05 (≈ 0.0869 µM) | 6.25 (≈ 10.9 µM) | > 100 | 0.05 (≈ 0.0869 µM) | MIC (E.coli ATCC10536): 0.013 µg/mL (≈ 0.0226 µM); MIC (S.Faecalis ATCC29212): > 100 µg/mL; MIC (P.aeruginosa ATCC10145): 3.13 µg/mL (≈ 5.44 µM); MIC (E.cloacae C4009): 0.013 µg/mL (≈ 0.0226 µM); MIC (S.aureus Smith): 3.13 µg/mL (≈ 5.44 µM)
Nc1nc(/C(=N/OCF)C(=O)N[C@@H]2C(=O)N3C(C(=O)[O-])=C(C[n+]4ccc5[nH]c(=O)[nH]c5c4)CS[C@H]23)ns1 [Ex. 9, 7-β-[(Z)-2-(5-Amino-1,2,4-thiadiazol-3-yl)-2-fluoromethoxyiminoacetamido]-3-[2-(1H, 3H)-oxo-imidazo[4,5-c]pyridiniummethyl]-3-cephem-4-carboxylate] | 0.004 (≈ 0.00728 µM) | 1.56 (≈ 2.84 µM) | 1.56 (≈ 2.84 µM) | 3.13 (≈ 5.7 µM) | 0.007 (≈ 0.0127 µM) | 0.007 (≈ 0.0127 µM) | 0.78 (≈ 1.42 µM) | 0.007 (≈ 0.0127 µM) | 0.004 (≈ 0.00728 µM) | 0.004 (≈ 0.00728 µM) | 0.013 (≈ 0.0237 µM) | 0.78 (≈ 1.42 µM) | 0.025 (≈ 0.0455 µM) | 0.004 (≈ 0.00728 µM) | 0.002 (≈ 0.00364 µM) | 0.78 (≈ 1.42 µM) | 0.007 (≈ 0.0127 µM) | 3.13 (≈ 5.7 µM) | > 100 | 0.026 (≈ 0.0473 µM) | MIC (E.coli ATCC10536): 0.007 µg/mL (≈ 0.0127 µM); MIC (S.Faecalis ATCC29212): > 100 µg/mL; MIC (P.aeruginosa ATCC10145): 1.56 µg/mL (≈ 2.84 µM); MIC (E.cloacae C4009): 0.013 µg/mL (≈ 0.0237 µM); MIC (S.aureus Smith): 1.56 µg/mL (≈ 2.84 µM)
